# Results reported in patent US7872014B2, “Anaplastic lymphoma kinase modulators and methods of use” (Exelixis, Inc., priority 2003, dated 2011).
# Target: T1, ALK (baculovirus expressed human ALK kinase domain F1098-K1410) (Homo sapiens, UniProt Q9UM73)
# T1 construct: baculovirus expressed human ALK kinase domain F1098-K1410; made in house
# Experiment: Luciferase-Coupled Chemiluminescent Kinase assay (LCCA), ALK biochemical activity
# Conditions: inhibition of ALK; mean values; 1 μM ATP, 4 μM poly-AEKY, 12 nM ALK, 2 hours ambient temperature
# Description: ALK biochemical activity was assessed using a Luciferase-Coupled Chemiluminescent Kinase assay (LCCA) format in which kinase activity was measured as the percent ATP remaining following the kinase reaction. ATP remaining after the kinase reaction was detected by luciferase-luciferin-coupled chemiluminescence.
# The reaction was initiated by mixing test compounds, 1 μM ATP, 4 μM poly-AEKY and 12 nM ALK (baculovirus expressed human ALK kinase domain F1098-K1410) in a 20 μL assay buffer ([…] pH 7.5, 10 mM MgCl2, 0.02% Triton X-100, 100 mM DTT, 2 mM MnCl2). The mixture was incubated at ambient temperature for 2 hours after which 20 μL luciferase-luciferin mix was added and the chemiluminescent signal read using a Wallac Victor^2 reader. The luciferase-luciferin mix consists of 50 mM HEPES, pH 7.8, 8.5 μg/mL oxalic acid (pH 7.8), 5 (or 50) mM DTT, 0.4% Triton X-100, 0.25 mg/mL coenzyme A, 63 μM AMP, 28 μg/mL luciferin and 40,000 units of light/mL luciferase.
# Consumption of ATP by ALK can thus be quantified and utilized as a measure of inhibition of ALK activity by compounds described herein. By employing serial dilutions of compounds to be tested, the ability of test compounds to inhibit ALK activity can be determined.
# T1 sequence (Q9UM73 1098-1410): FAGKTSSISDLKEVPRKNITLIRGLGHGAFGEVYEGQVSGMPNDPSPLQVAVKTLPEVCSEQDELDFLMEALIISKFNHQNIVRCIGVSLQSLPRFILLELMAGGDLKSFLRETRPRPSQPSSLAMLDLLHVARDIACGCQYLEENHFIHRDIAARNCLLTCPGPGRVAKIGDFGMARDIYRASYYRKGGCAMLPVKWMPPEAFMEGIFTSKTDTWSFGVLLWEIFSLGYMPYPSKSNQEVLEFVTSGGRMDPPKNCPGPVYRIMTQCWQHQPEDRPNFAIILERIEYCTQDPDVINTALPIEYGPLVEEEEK
row,Structure (SMILES),IC50 [µM]
1,"COc1cc2c(-c3ccc(O)c(Cl)c3)nc3[nH]ncc3c2cc1OC [Example 136, 4-[7,8-bis(methyloxy)-3H-pyrazolo[3,4-c]isoquinolin-5-yl]-2-chlorophenol]",0.1 to 0.999
2,"COc1cc2c(-c3ccc(O)c(Cl)c3)nc3[nH]nc(C)c3c2cc1OCC(F)(F)F [Example 153, 2-chloro-4-{1-methyl-7-(methyloxy)-8-[(2,2,2-trifluoroethyl)oxy]-3H-pyrazolo[3,4-c]isoquinolin-5-yl}phenol]",0.1 to 0.999
3,"COCCOc1cc2c(cc1OC)c(-c1ccc(O)cc1F)nc1[nH]nc(C)c12 [Example 125, 3-fluoro-4-(1-methyl-7-(methyloxy)-8-{[2-(methyloxy)ethyl]oxy}-3H-pyrazolo[3,4-c]isoquinolin-5-yl)phenol]",≤ 0.099
4,"COc1ccc2c(-c3ccc(O)cc3)nc3[nH]nc(C)c3c2c1F [Example 89, 4-[9-fluoro-1-methyl-8-(methyloxy)-3H-pyrazolo[3,4-c]isoquinolin-5-yl]phenol]",≤ 0.099
5,"COCCOc1cc2c(cc1OC)c(-c1ccc(O)c(Cl)c1)nc1[nH]nc(C)c12 [Example 115, 2-chloro-4-(1-methyl-7-(methyloxy)-8-{[2-(methyloxy)ethyl]oxy}-3H-pyrazolo[3,4-c]isoquinolin-5-yl)phenol]",≤ 0.099
6,"COc1cc2c(c(-c3ccc(O)cc3)nc3[nH]nc(C)c32)c(Br)c1C [Example 92, 4-[6-bromo-1,7-dimethyl-8-(methyloxy)-3H-pyrazolo[3,4-c]isoquinolin-5-yl]phenol]",≤ 0.099
7,"COc1cc2c(-c3ccc(O)c(Cl)c3)nc3[nH]nc(C)c3c2cc1OCC1CCN(C)CC1 [Example 88, 2-chloro-4-(1-methyl-7-(methyloxy)-8-{[(1-methylpiperidin-4-yl)methyl]oxy}-3H-pyrazolo[3,4-c]isoquinolin-5-yl)phenol]",≤ 0.099
8,"COc1cc2c(-c3ccc(O)c(Cl)c3)nc3[nH]nc(C)c3c2cc1OCC1CCCO1 (stereo not shown) [Example 151, 2-chloro-4-{1-methyl-7-(methyloxy)-8-[(tetrahydrofuran-2-ylmethyl)oxy]-3H-pyrazolo[3,4-c]isoquinolin-5-yl}phenol]",≤ 0.099
9,"COc1cc2c(c(-c3ccc(O)cc3)nc3[nH]nc(Cc4ccccc4)c32)c(OC)c1OC [Example 24, 4-[6,7,8-tris(methyloxy)-1-(phenylmethyl)-3H-pyrazolo[3,4-c]isoquinolin-5-yl]phenol]",≤ 0.099
10,"Cc1n[nH]c2nc(-c3cc(Cl)c(O)cc3F)c3c(F)c4c(cc3c12)OCCO4 [Example 150, 2-chloro-5-fluoro-4-(6-fluoro-1-methyl-8,9-dihydro-3H-[1,4]dioxino[2,3-g]pyrazolo[3,4-c]isoquinolin-5-yl)phenol]",≤ 0.099
11,"COc1c(OCCN2CCN(C)CC2)cc(F)c2c(-c3ccc(O)c(Cl)c3)nc3[nH]nc(C)c3c12 [Example 197, 2-chloro-4-(6-fluoro-1-methyl-9-(methyloxy)-8-{[2-(4-methylpiperazin-1-yl)ethyl]oxy}-3H-pyrazolo[3,4-c]isoquinolin-5-yl)phenol]",≤ 0.099
12,"COc1c(OCCN2CCSCC2)cc(F)c2c(-c3ccc(O)c(Cl)c3)nc3[nH]nc(C)c3c12 [Example 240, 2-chloro-4-{6-fluoro-1-methyl-9-(methyloxy)-8-[(2-thiomorpholin-4-ylethyl)oxy]-3H-pyrazolo[3,4-c]isoquinolin-5-yl}phenol]",≤ 0.099
13,"COc1c(OCCN2C(C)CCCC2C)cc(F)c2c(-c3ccc(O)c(Cl)c3)nc3[nH]nc(C)c3c12 (stereo not shown) [Example 241, 2-chloro-4-[8-{[2-(2,6-dimethylpiperidin-1-yl)ethyl]oxy}-6-fluoro-1-methyl-9-(methyloxy)-3H-pyrazolo[3,4-c]isoquinolin-5-yl]phenol]",≤ 0.099
14,"CCOc1cc2c(cc1OC)c(-c1ccc(O)cc1)nc1[nH]nc(C)c12 [Example 58, 4-[8-(ethyloxy)-1-methyl-7-(methyloxy)-3H-pyrazolo[3,4-c]isoquinolin-5-yl]phenol]",0.1 to 0.999
15,"COc1ccc(-c2nc3[nH]nc(C)c3c3cc(OCC4CCN(C)CC4)c(OC)c(F)c23)cc1Cl [Example 173, 5-[3-chloro-4-(methyloxy)phenyl]-6-fluoro-1-methyl-7-(methyloxy)-8-{[(1-methylpiperidin-4-yl)methyl]oxy}-3H-pyrazolo[3,4-c]isoquinoline]",1 to 2
16,"COCCOc1cc(F)c2c(-c3ccc(O)c(Cl)c3)nc3[nH]nc(C)c3c2c1OCCOC [Example 172, 2-chloro-4-(6-fluoro-1-methyl-8,9-bis{[2-(methyloxy)ethyl]oxy}-3H-pyrazolo[3,4-c]isoquinolin-5-yl)phenol]",≤ 0.099
17,"CCN1CCC(COc2cc3c(cc2OC)c(-c2ccc(O)c(Cl)c2)nc2[nH]nc(C)c23)CC1 [Example 95, 2-chloro-4-[8-{[(1-ethylpiperidin-4-yl)methyl]oxy}-1-methyl-7-(methyloxy)-3H-pyrazolo[3,4-c]isoquinolin-5-yl]phenol]",≤ 0.099
18,"COc1cc2c(-c3ccc(O)c(Cl)c3)nc3[nH]nc(C)c3c2cc1OCC1CCN(C(C)=O)CC1 [Example 106, 4-[8-{[(1-acetylpiperidin-4-yl)methyl]oxy}-1-methyl-7-(methyloxy)-3H-pyrazolo[3,4-c]isoquinolin-5-yl]-2-chlorophenol]",≤ 0.099
19,"COc1cc2c(-c3ccc(O)c(OC(F)F)c3)nc3[nH]nc(C)c3c2cc1OC [Example 76, 2-[(difluoromethyl)oxy]-4-[1-methyl-7,8-bis(methyloxy)-3H-pyrazolo[3,4-c]isoquinolin-5-yl]phenol]",1 to 2

# Second part, the compound after the results:
row,IC50 [µM],Structure (SMILES)
1,≤ 0.099,"COc1ccc2c(-c3ccc(O)c(C)c3)nc3[nH]nc(C)c3c2c1OC [Example 71, 2-methyl-4-[1-methyl-8,9-bis(methyloxy)-3H-pyrazolo[3,4-c]isoquinolin-5-yl]phenol]"
2,≤ 0.099,"COc1c(OCCN2CCC(N3CCCCC3)CC2)cc(F)c2c(-c3ccc(O)c(Cl)c3)nc3[nH]nc(C)c3c12 [Example 236, 4-[8-{[2-(1,4′-bipiperidin-1′-yl)ethyl]oxy}-6-fluoro-1-methyl-9-(methyloxy)-3H-pyrazolo[3,4-c]isoquinolin-5-yl]-2-chlorophenol]"
3,≤ 0.099,"Cc1n[nH]c2nc(-c3ccc(O)c(Cl)c3)c3cc4c(cc3c12)OCCO4 [Example 140, 2-chloro-4-(1-methyl-8,9-dihydro-3H-[1,4]dioxino[2,3-g]pyrazolo[3,4-c]isoquinolin-5-yl)phenol]"
4,≤ 0.099,"COc1c(OCCN(CCCN(C)C)CCCN(C)C)cc(F)c2c(-c3ccc(O)c(Cl)c3)nc3[nH]nc(C)c3c12 [Example 230, 4-[8-[(2-{bis[3-(dimethylamino)propyl]amino}ethyl)oxy]-6-fluoro-1-methyl-9-(methyloxy)-3H-pyrazolo[3,4-c]isoquinolin-5-yl]-2-chlorophenol]"
5,≤ 0.099,"COCCOc1cc(F)c2c(-c3cc(Cl)c(O)cc3F)nc3[nH]nc(C)c3c2c1OC [Example 143, 2-chloro-5-fluoro-4-(6-fluoro-1-methyl-9-(methyloxy)-8-{[2-(methyloxy)ethyl]oxy}-3H-pyrazolo[3,4-c]isoquinolin-5-yl)phenol]"
6,≤ 0.099,"COc1c(OCCCN2CCCC2)cc(F)c2c(-c3ccc(O)c(Cl)c3)nc3[nH]nc(C)c3c12 [Example 224, 2-chloro-4-{6-fluoro-1-methyl-9-(methyloxy)-8-[(3-pyrrolidin-1-ylpropyl)oxy]-3H-pyrazolo[3,4-c]isoquinolin-5-yl}phenol]"
7,≤ 0.099,"CCCCN(CC)CCOc1cc(F)c2c(-c3ccc(O)c(Cl)c3)nc3[nH]nc(C)c3c2c1OC [Example 207, 4-[8-({2-[butyl(ethyl)amino]ethyl}oxy)-6-fluoro-1-methyl-9-(methyloxy)-3H-pyrazolo[3,4-c]isoquinolin-5-yl]-2-chlorophenol]"
8,≤ 0.099,"COc1c(OCCN2CCC(N3CCCC3)CC2)cc(F)c2c(-c3ccc(O)c(Cl)c3)nc3[nH]nc(C)c3c12 [Example 233, 2-chloro-4-(6-fluoro-1-methyl-9-(methyloxy)-8-{[2-(4-pyrrolidin-1-ylpiperidin-1-yl)ethyl]oxy}-3H-pyrazolo[3,4-c]isoquinolin-5-yl)phenol]"
9,≤ 0.099,"Cc1n[nH]c2nc(-c3cc(Cl)c(O)cc3F)c3ccc4c(c3c12)OCCO4 [Example 146, 2-chloro-5-fluoro-4-(11-methyl-2,3-dihydro-9H-[1,4]dioxino[2,3-f]pyrazolo[3,4-c]isoquinolin-7-yl)phenol]"
10,≤ 0.099,"COCCN(CCOC)CCOc1cc(F)c2c(-c3ccc(O)c(Cl)c3)nc3[nH]nc(C)c3c2c1OC [Example 244, 4-[8-[(2-{bis[2-(methyloxy)ethyl]amino}ethyl)oxy]-6-fluoro-1-methyl-9-(methyloxy)-3H-pyrazolo[3,4-c]isoquinolin-5-yl]-2-chlorophenol]"
11,≤ 0.099,"COCCOc1ccc2c(-c3ccc(O)c(Cl)c3)nc3[nH]nc(C)c3c2c1OC [Example 108, 2-chloro-4-(1-methyl-9-(methyloxy)-8-{[2-(methyloxy)ethyl]oxy}-3H-pyrazolo[3,4-c]isoquinolin-5-yl)phenol]"
12,≤ 0.099,"Cc1n[nH]c2nc(-c3ccc(O)c(Cl)c3)c3c(F)cc(OCC4CCN(C)CC4)c(F)c3c12 [Example 169, 2-chloro-4-(6,9-difluoro-1-methyl-8-{[(1-methylpiperidin-4-yl)methyl]oxy}-3H-pyrazolo[3,4-c]isoquinolin-5-yl)phenol]"
